Here are results for six molecules from patent publication US7732582B2, “Benzonaphthacene glycoside derivative and use thereof” (FUJIFILM Corporation, priority 2004, dated 2010).

The nature of data set [1]: Solubility test in PBS(−) and PBS(+) solution. The class given is physicochemical. The settings on record: for Solubility PBS(+): PBS(+) solution (with CaCl2 and MgCl2); for Solubility PBS (−): PBS(−) solution, ultrasonicated at 30° C. 10 minutes, room temperature 2 hours, absorbance at 500 nm. How it is done:
PBS tablets (ICN Bioohemi Inc., containing 0.02 g of KH2PO4, 0.115 g of Na2HPO4, 0.02 g of KCl and […] of NaCl per tablet) were dissolved in distilled water (100 ml), and the solution was autoclaved to obtain a PBS(−) solution. The PBS(−) solution (80 ml) was added with CaCl2 dihydrate (1 g/L, 10 ml) and MgCl2 hexahydrate (1 g/L, 10 ml) to prepare a PBS(+) solution.
Each test compound (1 mg) was added to the PBS(−) solution (300 μl), and the mixture was ultrasonicated at 30° C. for 10 minutes, and left at room temperature for 2 hours. Then, the mixture was centrifuged (12,000 rpm, 10 minutes), the supernatant was diluted 50 times with 0.01 N sodium hydroxide solution, and absorbance of the diluted mixture was measured at 500 nm.
The solubility in the PBS(+) solution can also be obtained in a similar manner.

The nature of data set [2]: Mannan binding test. The settings on record: PBS(+); incubation at 30° C. for 24 hours; ~0: below detection limit (trace). Further details: species or system yeast. How it is done:
A PBS(+) solution (100 μl) of mannan (Sigma, derived from yeast, 50 μg/ml) and a PBS(+) solution (100 μl) of each test compound (40 μg/ml) were mixed, and incubated at 30° C. for 24 hours. Then, the mixture was centrifuged (14,000 rpm, 4° C., 5 minutes), the supernatant was diluted 10 times with 0.01 N sodium hydroxide solution, and absorbance of the diluted mixture was measured at 500 nm. The amount of the dissolved compound was calculated on the basis of E1 cm1%180 (500 nm), and the amount of the compound binding to mannan was calculated.

Data set [3] deals with A. fumigatus IFO8866. Description: Antifungal activity test, agar dilution method. Type of data set: cell-based. The settings on record: for antifungal activity against A. fumigatus (in words): compared with control BMY28864; for MIC A. fumigatus IFO8866: yeast morphology agar, pH 7.0, 30° C. for 2 days. How it is done:
(§1) Antifungal activity was measured by the agar dilution method utilizing the yeast morphology agar (0.15 M phosphate buffer, pH 7.0). Each microorganism was inoculated in an amount of 5 μl of 2×10^6 cells/ml solution per spot, and cultured at 30° C. for 2 days. The results were represented in terms of the minimum growth inhibitory concentration. As a control compound, BMY28864 was used.
For orientation: In agar dilution the substance is mixed into plates at graded concentrations.

In data set [4] the test system is C. albicans A9540. Nature of the data set: Antifungal activity test, agar dilution method. The class given is cell-based. The settings on record: for antifungal activity against C. albicans (in words): compared with control BMY28864; for MIC C. albicans A9540: yeast morphology agar, pH 7.0, 30° C. for 2 days. The procedure:
as §1

The test system of data set [5] is C. neoformans ATCC 90112. Description: Antifungal activity test, agar dilution method. The class given is cell-based. The settings on record: for antifungal activity against C. neoformans (in words): compared with control BMY28864; for MIC C. neoformans ATCC 90112: yeast morphology agar, pH 7.0, 30° C. for 2 days. How it is done:
as §1

Molecules are shown by their SMILES. In brackets after ≈: the same amount, converted by molar mass. Some results are limits rather than exact numbers.

Regarding `COc1cc(O)c2c(c1)C(=O)c1c(cc3c(c1O)-c1c(cc(C)c(C(=O)N[C@H](CO)C(=O)O)c1O)[C@H](O[C@@H]1O[C@H](C)[C@H](N(C)C)[C@H](O[C@H](OCC(=O)O)C(=O)O)[C@H]1O)[C@H]3O)C2=O` [BMY28864-DCA], in data set [1], the “Solubility PBS(+)” value is on record as 37,500 μg/ml and the “Solubility PBS (−)” value is on record as 37,500 μg/ml. In addition, the Binding to mannan in data set [2] was 0.28 μg/1 μg of mannan. Besides, in data set [3], the “antifungal activity against A. fumigatus (in words)” value is on record as “relatively low” and the “MIC A. fumigatus IFO8866” value was over 50 µg/mL. For the same molecule, in data set [4], the “antifungal activity against C. albicans (in words)” value is “maintained” and the “MIC C. albicans A9540” value was determined as 12.5 µg/mL (≈ 14.4 µM). Further, in data set [5], the “antifungal activity against C. neoformans (in words)” value was “maintained” and the “MIC C. neoformans ATCC 90112” value was found to be 25 µg/mL (≈ 28.7 µM).

`CN[C@@H]1[C@H](O[C@H](OCC(=O)O)C(=O)O)[C@@H](O)[C@H](O[C@H]2c3cc(C)c(C(=O)N[C@H](C)C(=O)O)c(O)c3-c3c(cc4c(c3O)C(=O)c3cc(OC)cc(O)c3C4=O)[C@@H]2O)O[C@@H]1C` [PRM A-DCA]: in data set [1], the “Solubility PBS(+)” value was 2,300 μg/ml and the “Solubility PBS (−)” value was 2,250 μg/ml. Also, the Binding to mannan in data set [2] was 0.02 μg/1 μg of mannan. In addition, in data set [3], the “antifungal activity against A. fumigatus (in words)” value is on record as “relatively low” and the “MIC A. fumigatus IFO8866” value is over 50 µg/mL. Further, in data set [4], the “antifungal activity against C. albicans (in words)” value was “maintained” and the “MIC C. albicans A9540” value was determined as 6.3 µg/mL (≈ 7.49 µM). In data set [5], the “antifungal activity against C. neoformans (in words)” value is on record as “maintained” and the “MIC C. neoformans ATCC 90112” value stood at 12.5 µg/mL (≈ 14.9 µM).

For `COc1cc(O)c2c(c1)C(=O)c1c(cc3c(c1O)-c1c(cc(C)c(C(=O)N[C@H](CO)C(=O)O)c1O)[C@H](O[C@@H]1O[C@H](C)[C@H](N(C)C)[C@H](O[C@@H]4OC[C@@H](O)[C@H](O)[C@H]4O)[C@H]1O)[C@H]3O)C2=O` [BMY28864, N,N′-dimethylpradimicin FA-2, reference compound], in data set [1], the “Solubility PBS(+)” value is reported as 16,000 μg/ml and the “Solubility PBS (−)” value was 14,000 μg/ml. Besides, in data set [2], the Binding to mannan is listed as 0.81 μg/1 μg of mannan. Also, the “MIC A. fumigatus IFO8866” value in data set [3] came to 12.5 µg/mL (≈ 14.4 µM). For the same molecule, in data set [4], the “MIC C. albicans A9540” value stood at 6.3 µg/mL (≈ 7.23 µM). In addition, the “MIC C. neoformans ATCC 90112” value in data set [5] came out at 3.1 µg/mL (≈ 3.56 µM).

In the case of `COc1cc(O)c2c(c1)C(=O)c1c(cc3c(c1O)-c1c(cc(C)c(C(=O)N[C@H](C)C(=O)O)c1O)[C@H](O[C@@H]1O[C@H](C)[C@H](N(C)C)[C@H](O[C@H](OCC(=O)O)C(=O)O)[C@H]1O)[C@H]3O)C2=O` [N,N-Me2-PRM C-DCA], in data set [1], the “Solubility PBS(+)” value is reported as 1,850 μg/ml and the “Solubility PBS (−)” value was 1,400 μg/ml. Besides, the Binding to mannan in data set [2] is recorded as ~0 μg/1 μg of mannan. Moreover, in data set [3], the “antifungal activity against A. fumigatus (in words)” value was “lower than that of BMY28884” and the “MIC A. fumigatus IFO8866” value is 25 µg/mL (≈ 29.2 µM). In addition, in data set [4], the “antifungal activity against C. albicans (in words)” value is “almost equal to those of BMY28884” and the “MIC C. albicans A9540” value was determined as 6.3 µg/mL (≈ 7.37 µM). Also, in data set [5], the “antifungal activity against C. neoformans (in words)” value is “almost equal to those of BMY28884” and the “MIC C. neoformans ATCC 90112” value came to 3.1 µg/mL (≈ 3.63 µM).

Turning to `COc1cc(O)c2c(c1)C(=O)c1c(cc3c(c1O)-c1c(cc(C)c(C(=O)N[C@H](C)C(=O)O)c1O)[C@H](O[C@@H]1O[C@H](C)[C@H](N(C)C)[C@H](O[C@@H]4OC[C@@H](O)[C@H](O)[C@H]4O)[C@H]1O)[C@H]3O)C2=O` [N,N-Me2-PRM C, reference compound], in data set [1], the “Solubility PBS(+)” value turned out to be 950 µg/mL (≈ 1110 µM) and the “Solubility PBS (−)” value is recorded as 1,900 μg/ml. Moreover, the Binding to mannan in data set [2] is 0.79 μg/1 μg of mannan.

Turning to `CN[C@@H]1[C@H](O[C@@H]2OC[C@@H](O)[C@H](O)[C@H]2O)[C@@H](O)[C@H](O[C@H]2c3cc(C)c(C(=O)N[C@H](C)C(=O)O)c(O)c3-c3c(cc4c(c3O)C(=O)c3cc(OC)cc(O)c3C4=O)[C@@H]2O)O[C@@H]1C` [PRM A, Pradimicin (PRM) A, reference compound], in data set [1], the “Solubility PBS(+)” value stood at 68.5 µg/mL (≈ 81.5 µM) and the “Solubility PBS (−)” value came to 39.5 µg/mL (≈ 47 µM). The Binding to mannan in data set [2] is 0.89 μg/1 μg of mannan.
